# In patent US20250230193A1, “CYCLIC COMPOUND HAVING SELECTIVE KRAS INHIBITORY EFFECT ON HRAS AND NRAS” (CHUGAI SEIYAKU KABUSHIKI KAISHA, priority 2022, published 2025):
# Experiments:
# [1] = target: GDP-bound NRAS wild-type protein (Homo sapiens, UniProt P01111); assay: Binding to NRAS by surface plasmon resonance (SPR), Single Cycle Kinetics; details: KD ratio, GDP-bound NRAS wild-type vs GDP-bound KRAS wild-type, SPR
# [2] = target: GDP-bound HRAS wild-type protein (Homo sapiens, UniProt P01112); assay: Binding to HRAS by surface plasmon resonance (SPR), Single Cycle Kinetics; details: KD ratio, GDP-bound HRAS wild-type vs GDP-bound KRAS wild-type, SPR
# Chain of GDP-bound HRAS wild-type protein (P01112 whole entry): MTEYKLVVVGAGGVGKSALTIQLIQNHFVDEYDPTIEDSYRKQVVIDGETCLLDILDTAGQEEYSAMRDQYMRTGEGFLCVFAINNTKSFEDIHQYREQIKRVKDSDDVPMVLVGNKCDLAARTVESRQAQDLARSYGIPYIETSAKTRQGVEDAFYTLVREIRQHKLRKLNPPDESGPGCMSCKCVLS
# Chain of GDP-bound NRAS wild-type protein (P01111 whole entry): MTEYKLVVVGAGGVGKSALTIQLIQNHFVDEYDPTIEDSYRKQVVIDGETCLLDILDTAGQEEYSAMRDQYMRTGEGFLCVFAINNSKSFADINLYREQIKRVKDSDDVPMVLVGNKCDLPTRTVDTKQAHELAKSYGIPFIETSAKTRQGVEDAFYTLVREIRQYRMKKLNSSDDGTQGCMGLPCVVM
Compound,NRAS/KRAS (ratio of KD value with respect to NRAS to KD value with respect to KRAS) [1],HRAS/KRAS (ratio of KD value with respect to HRAS to KD value with respect to KRAS) [2]
CCO[C@@H]1C[C@H]2C(=O)NC3(CCC3)C(=O)N(C)[C@@H](C3CCCC3)C(=O)N(C)[C@H](C(=O)N(C)C)CC(=O)N(C)[C@@H](CC(C)C)C(=O)N[C@@H]([C@@H](C)CC)C(=O)N(C)CC(=O)N(C)[C@H]3C[C@@H](C)CCN(C3=O)[C@@H](Cc3ccc(C(F)(F)F)cc3)C(=O)N(C)CC(=O)N[C@@H](CCc3cc(F)c(C(F)(F)F)c(F)c3)C(=O)N2C1 [PP1018],C (A compound having a KD ratio of 0.1 or more and less than 3 is denoted as C),B (a compound having 3 or more and less than 10 is denoted as B)
CCO[C@@H]1C[C@H]2C(=O)NC3(CCC3)C(=O)N(C)[C@@H](C3CCCC3)C(=O)N(C)[C@H](C(=O)N(C)C)CC(=O)N(C)[C@@H](CC(C)C)C(=O)N[C@@H]([C@@H](C)CC)C(=O)N3CC[C@H]3C(=O)N(C)[C@H]3C[C@@H](C)CCN(C3=O)[C@@H](Cc3ccc(C(F)(F)F)cc3)C(=O)N(C)CC(=O)N[C@@H](CCc3cc(F)c(C(F)(F)F)c(F)c3)C(=O)N2C1 [PP1019],C (A compound having a KD ratio of 0.1 or more and less than 3 is denoted as C),B (a compound having 3 or more and less than 10 is denoted as B)
CCO[C@@H]1C[C@H]2C(=O)NC3(CCC3)C(=O)N(C)[C@@H](C3CCCC3)C(=O)N(C)[C@H](C(=O)N(C)C)CC(=O)N(C)[C@@H](CC)C(=O)N[C@@H]([C@@H](C)CC)C(=O)N(C)CC(=O)N(C)[C@H]3C[C@@H](C)CCN(C3=O)[C@@H](Cc3ccc(C(F)(F)F)cc3)C(=O)N(C)CC(=O)N[C@@H](CCc3cc(F)c(C(F)(F)F)c(F)c3)C(=O)N2C1 [PP1020],C (A compound having a KD ratio of 0.1 or more and less than 3 is denoted as C),B (a compound having 3 or more and less than 10 is denoted as B)
CCO[C@@H]1C[C@H]2C(=O)NC3(CCC3)C(=O)N(C)[C@@H](C3CCCC3)C(=O)N(C)[C@H](C(=O)N(C)C)CC(=O)N(C)[C@@H](CC)C(=O)N[C@@H]([C@@H](C)CC)C(=O)N3CC[C@H]3C(=O)N(C)[C@H]3C[C@@H](C)CCN(C3=O)[C@@H](Cc3ccc(C(F)(F)F)cc3)C(=O)N(C)CC(=O)N[C@@H](CCc3cc(F)c(C(F)(F)F)c(F)c3)C(=O)N2C1 [PP1021],C (A compound having a KD ratio of 0.1 or more and less than 3 is denoted as C),B (a compound having 3 or more and less than 10 is denoted as B)
CCO[C@@H]1C[C@H]2C(=O)NC3(CCCC3)C(=O)N(C)[C@@H](C3CCCC3)C(=O)N(C)[C@H](C(=O)N(C)C)CC(=O)N(C)[C@@H](CC)C(=O)N[C@@H]([C@@H](C)CC)C(=O)N(C)CC(=O)N(C)[C@H]3C[C@@H](C)CCN(C3=O)[C@@H](Cc3ccc(C(F)(F)F)cc3)C(=O)N(C)CC(=O)N[C@@H](CCc3cc(F)c(C(F)(F)F)c(F)c3)C(=O)N2C1 [PP1022],C (A compound having a KD ratio of 0.1 or more and less than 3 is denoted as C),B (a compound having 3 or more and less than 10 is denoted as B)
CCO[C@@H]1C[C@H]2C(=O)NC3(CCCC3)C(=O)N(C)[C@@H](C3CCCC3)C(=O)N(C)[C@H](C(=O)N3CCOCC3)CC(=O)N(C)[C@@H](CC(C)C)C(=O)N[C@@H]([C@@H](C)CC)C(=O)N(C)CC(=O)N(C)[C@H]3C[C@@H](C)CCN(C3=O)[C@@H](Cc3ccc(C(F)(F)F)cc3)C(=O)N(C)CC(=O)N[C@@H](CCc3cc(F)c(C(F)(F)F)c(F)c3)C(=O)N2C1 [PP1024],B (a compound having 3 or more and less than 10 is denoted as B),B (a compound having 3 or more and less than 10 is denoted as B)
CCO[C@@H]1C[C@H]2C(=O)NC3(CCC3)C(=O)N(C)[C@@H](C3CCCC3)C(=O)N(C)[C@H](C(=O)N3CCOCC3)CC(=O)N(C)[C@@H](CC(C)C)C(=O)N[C@@H]([C@@H](C)CC)C(=O)N(C)CC(=O)N(C)[C@H]3C[C@@H](C)CCN(C3=O)[C@@H](Cc3ccc(C(F)(F)F)cc3)C(=O)N(C)CC(=O)N[C@@H](CCc3cc(F)c(C(F)(F)F)c(F)c3)C(=O)N2C1 [PP1025],C (A compound having a KD ratio of 0.1 or more and less than 3 is denoted as C),B (a compound having 3 or more and less than 10 is denoted as B)
CCO[C@@H]1C[C@H]2C(=O)NC3(CCC3)C(=O)N(C)[C@@H](C3CCCC3)C(=O)N(C)[C@H](C(=O)N3CCOCC3)CC(=O)N(C)[C@@H](CC(C)C)C(=O)N[C@@H]([C@@H](C)CC)C(=O)N3CC[C@H]3C(=O)N(C)[C@H]3C[C@@H](C)CCN(C3=O)[C@@H](Cc3ccc(C(F)(F)F)cc3)C(=O)N(C)CC(=O)N[C@@H](CCc3cc(F)c(C(F)(F)F)c(F)c3)C(=O)N2C1 [PP1026],B (a compound having 3 or more and less than 10 is denoted as B),B (a compound having 3 or more and less than 10 is denoted as B)
CCO[C@@H]1C[C@H]2C(=O)NC3(CCC3)C(=O)N(C)[C@@H](C3CCCC3)C(=O)N(C)[C@H](C(=O)N3CCOCC3)CC(=O)N(C)[C@@H](CC)C(=O)N[C@@H]([C@@H](C)CC)C(=O)N(C)CC(=O)N(C)[C@H]3C[C@@H](C)CCN(C3=O)[C@@H](Cc3ccc(C(F)(F)F)cc3)C(=O)N(C)CC(=O)N[C@@H](CCc3cc(F)c(C(F)(F)F)c(F)c3)C(=O)N2C1 [PP1027],C (A compound having a KD ratio of 0.1 or more and less than 3 is denoted as C),B (a compound having 3 or more and less than 10 is denoted as B)
CCO[C@@H]1C[C@H]2C(=O)NC3(CCC3)C(=O)N(C)[C@@H](C3CCCC3)C(=O)N(C)[C@H](C(=O)N3CCOCC3)CC(=O)N(C)[C@@H](CC)C(=O)N[C@@H]([C@@H](C)CC)C(=O)N3CC[C@H]3C(=O)N(C)[C@H]3C[C@@H](C)CCN(C3=O)[C@@H](Cc3ccc(C(F)(F)F)cc3)C(=O)N(C)CC(=O)N[C@@H](CCc3cc(F)c(C(F)(F)F)c(F)c3)C(=O)N2C1 [PP1028],B (a compound having 3 or more and less than 10 is denoted as B),B (a compound having 3 or more and less than 10 is denoted as B)
CCO[C@@H]1C[C@H]2C(=O)NC3(CCCC3)C(=O)N(C)[C@@H](C3CCCC3)C(=O)N(C)[C@H](C(=O)N3CCOCC3)CC(=O)N(C)[C@@H](CC)C(=O)N[C@@H]([C@@H](C)CC)C(=O)N(C)CC(=O)N(C)[C@H]3C[C@@H](C)CCN(C3=O)[C@@H](Cc3ccc(C(F)(F)F)cc3)C(=O)N(C)CC(=O)N[C@@H](CCc3cc(F)c(C(F)(F)F)c(F)c3)C(=O)N2C1 [PP1029],C (A compound having a KD ratio of 0.1 or more and less than 3 is denoted as C),B (a compound having 3 or more and less than 10 is denoted as B)
CCO[C@@H]1C[C@H]2C(=O)NC3(CCC3)C(=O)N(C)[C@@H](C3CCCC3)C(=O)N(C)[C@H](C(=O)N3CCOCC3)CC(=O)N(CC)[C@@H](CC(C)C)C(=O)N[C@@H]([C@@H](C)CC)C(=O)N(C)CC(=O)N(C)[C@H]3C[C@@H](C)CCN(C3=O)[C@@H](Cc3ccc(C(F)(F)F)cc3)C(=O)N(C)CC(=O)N[C@@H](CCc3cc(F)c(C(F)(F)F)c(F)c3)C(=O)N2C1 [PP1030],B (a compound having 3 or more and less than 10 is denoted as B),B (a compound having 3 or more and less than 10 is denoted as B)
CCO[C@@H]1C[C@H]2C(=O)NC3(CCCC3)C(=O)N(C)[C@@H](C3CCCC3)C(=O)N(C)[C@H](C(=O)N(C)C)CC(=O)N(C)[C@@H](CC(C)C)C(=O)N[C@@H]([C@@H](C)CC)C(=O)N(C)CC(=O)N(C)[C@H]3CC(C)=CCN(C3=O)[C@@H](Cc3ccc(C(F)(F)F)cc3)C(=O)N(C)CC(=O)N[C@@H](CCc3cc(F)c(C(F)(F)F)c(F)c3)C(=O)N2C1 [PP1031],C (A compound having a KD ratio of 0.1 or more and less than 3 is denoted as C),C (A compound having a KD ratio of 0.1 or more and less than 3 is denoted as C)
CCO[C@@H]1C[C@H]2C(=O)NC3(CCC3)C(=O)N(C)[C@@H](C3CCCC3)C(=O)N(C)[C@H](C(=O)N(C)C)CC(=O)N(C)[C@@H](CC(C)C)C(=O)N[C@@H]([C@@H](C)CC)C(=O)N(C)CC(=O)N(C)[C@H]3CC(C)=CCN(C3=O)[C@@H](Cc3ccc(C(F)(F)F)cc3)C(=O)N(C)CC(=O)N[C@@H](CCc3cc(F)c(C(F)(F)F)c(F)c3)C(=O)N2C1 [PP1032],C (A compound having a KD ratio of 0.1 or more and less than 3 is denoted as C),C (A compound having a KD ratio of 0.1 or more and less than 3 is denoted as C)
CCO[C@@H]1C[C@H]2C(=O)NC3(CCC3)C(=O)N(C)[C@@H](C3CCCC3)C(=O)N(C)[C@H](C(=O)N(C)C)CC(=O)N(C)[C@@H](CC(C)C)C(=O)N[C@@H]([C@@H](C)CC)C(=O)N3CC[C@H]3C(=O)N(C)[C@H]3CC(C)=CCN(C3=O)[C@@H](Cc3ccc(C(F)(F)F)cc3)C(=O)N(C)CC(=O)N[C@@H](CCc3cc(F)c(C(F)(F)F)c(F)c3)C(=O)N2C1 [PP1033],C (A compound having a KD ratio of 0.1 or more and less than 3 is denoted as C),C (A compound having a KD ratio of 0.1 or more and less than 3 is denoted as C)
